The source of these data is patent publication US9750738B2, “Arylpiperazine opioid receptor antagonists” (RESEARCH TRIANGLE INSTITUTE, priority 2010, dated 2017).

For data set [1], the target named is T1, cloned human μ opioid receptor (Homo sapiens, UniProt P35372).
T1 construct: expressed in transfected cells
Nature of the data set: Inhibition of DAMGO-stimulated [35S]GTPγS binding. The class given is biochemical. Conditions: antagonism of agonist DAMGO; for Kb: read-out: μ, DAMGO Ke.

The target of data set [2] is T2, cloned human δ opioid receptor (Homo sapiens, UniProt P41143).
T2 construct: expressed in transfected cells
Nature of the data set: Inhibition of DPDPE-stimulated [35S]GTPγS binding. Conditions: antagonism of agonist DPDPE; for Kb: read-out: δ, DPDPE Ke. Format: biochemical. For orientation: GTPγS is a poorly hydrolysed GTP analogue; its binding reports G protein activation.

Data set [3] addresses T3, cloned human κ opioid receptor (Homo sapiens, UniProt P41145).
T3 construct: expressed in transfected cells
Nature of the data set: Inhibition of U69,593-stimulated [35S]GTPγS binding. The note with it: antagonism of agonist U69,593, [35S]GTPγS binding; for Kb: read-out: κ, U69,593 ke. The class given is biochemical.

T3 sequence (P41145 whole entry): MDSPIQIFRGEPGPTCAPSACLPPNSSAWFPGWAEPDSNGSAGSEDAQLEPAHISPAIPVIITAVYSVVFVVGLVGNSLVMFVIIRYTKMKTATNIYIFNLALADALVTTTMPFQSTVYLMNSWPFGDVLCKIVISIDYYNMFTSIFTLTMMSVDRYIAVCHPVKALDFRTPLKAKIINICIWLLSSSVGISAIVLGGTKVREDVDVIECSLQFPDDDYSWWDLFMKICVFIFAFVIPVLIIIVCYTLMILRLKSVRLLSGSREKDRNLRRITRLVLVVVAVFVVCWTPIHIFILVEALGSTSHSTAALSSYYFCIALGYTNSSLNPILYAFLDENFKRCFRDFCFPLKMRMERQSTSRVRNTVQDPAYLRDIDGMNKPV
T2 sequence (P41143 whole entry): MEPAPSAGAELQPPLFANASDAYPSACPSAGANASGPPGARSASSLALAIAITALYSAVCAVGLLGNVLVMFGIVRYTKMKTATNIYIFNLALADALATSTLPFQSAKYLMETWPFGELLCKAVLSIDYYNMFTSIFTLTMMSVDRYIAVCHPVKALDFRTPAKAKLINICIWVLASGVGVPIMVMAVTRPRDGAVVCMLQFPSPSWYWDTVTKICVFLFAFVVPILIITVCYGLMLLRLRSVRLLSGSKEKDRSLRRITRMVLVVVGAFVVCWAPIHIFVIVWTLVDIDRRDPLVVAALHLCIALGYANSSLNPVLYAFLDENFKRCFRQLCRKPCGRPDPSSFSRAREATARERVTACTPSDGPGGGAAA
T1 sequence (P35372 whole entry): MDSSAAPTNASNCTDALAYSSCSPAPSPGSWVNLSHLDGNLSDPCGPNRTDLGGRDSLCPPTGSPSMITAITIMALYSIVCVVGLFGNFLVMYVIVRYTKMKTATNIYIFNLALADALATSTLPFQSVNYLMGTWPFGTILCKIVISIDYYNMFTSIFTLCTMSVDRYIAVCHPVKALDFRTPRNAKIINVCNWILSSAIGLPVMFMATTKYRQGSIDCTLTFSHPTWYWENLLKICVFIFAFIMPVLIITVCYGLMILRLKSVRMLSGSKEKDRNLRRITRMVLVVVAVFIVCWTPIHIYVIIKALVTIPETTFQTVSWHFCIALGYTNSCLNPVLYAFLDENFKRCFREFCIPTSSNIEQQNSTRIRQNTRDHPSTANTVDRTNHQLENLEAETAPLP

As to `C[C@@H]1CN(CCCc2ccccc2)CCN1c1cccc(O)c1` [Compound 5c, (R)-3-(2-Methyl-4-phenylpropylpiperazin-1-yl)phenol], the Kb in data set [1] came out at 1 ± 0.2 nM; in data set [2], 7 ± 2 nM; in data set [3], 1.5 ± 0.4 nM.

For the compound `C[C@H]1CN(CCCc2ccccc2)CCN1c1cccc(O)c1` [Compound 5b, (S)-3-(2-Methyl-4-phenylpropylpiperazin-1-yl)phenol], the Kb in data set [1] is 0.88 nM; in data set [2], 13.4 nM; in data set [3] it was 4.09 nM.

`C[C@H]1CN(c2cccc(O)c2)[C@@H](C)CN1CCCc1ccccc1` [Compound 5e, 3-[(2S,5S)-2,5-Dimethyl-4-(3-phenylpropyl)piperazin-1-yl]phenol]: the Kb in data set [3] was 7 ± 0.3 nM.

Take `CC(C)[C@@H](CN1CCN(c2cccc(O)c2)[C@@H](C)C1)NC(=O)[C@H]1Cc2ccc(O)cc2CN1` [Compound 5j, (3R)-7-Hydroxy-N-[(1S)-1-{[(3S)-4-(3-hydroxyphenyl)-3-methylpiperazin-1-yl]methyl}-2-methylpropyl]-1,2,3,4-tetrahydroisoquinoline-3-carboxamide]: the Kb is 22 ± 4 nM in data set [1], 274 ± 48 nM in data set [2] and 2.7 ± 0.1 nM in data set [3].

Take `CC1CN(CCCc2ccccc2)CC(C)N1c1cccc(O)c1` (stereo not shown) [Compound 5d, (Z)-3-(2,6-Dimethyl-4-(3-phenylpropyl)piperazin-1-yl)phenol]: the Kb in data set [2] was determined as 4300 nM; in data set [3], 3 nM.

As to `CC(C)[C@H](N)CN1CCN(c2cccc(O)c2)[C@@H](C)C1` [Compound 5i, 3-{(2S)-4-[(2S)-2-Amino-3-methylbutyl]-2-methylpiperazin-1-yl}phenol], the Kb in data set [1] is 2 nM; in data set [2], 55 nM; in data set [3], 10 nM.

Usually melting point stands for the temperature, or range, at which the solid turns liquid. Consider `CCC1CN(CCCc2ccccc2)CCN1c1cccc(O)c1.Cl.Cl` (stereo not shown), for which the melting point is 161 to 166 °C.

For `C[C@H]1CN(C)CC[C@@]1(C)c1cccc(O)c1` [Compound 2b, reference compound], the “μ, DAMGO Ke” value in data set [1] was determined as 29 ± 3 nM. Moreover, in data set [2], the “δ, DPDPE Ke” value was 680 ± 240 nM. Further, the “κ, U69,593 ke” value in data set [3] is 155 ± 24 nM.

In the case of `CC1CN(CCCc2ccccc2)CCC1(C)c1cccc(O)c1` (stereo not shown) [Compound 2c, N-phenylpropyl 3,4-dimethyl-4-(3-hydroxyphenyl)piperidine, reference compound], the results for the Kb in data set [1], in data set [2] and in data set [3] were 0.1 ± 0.02 nM, 0.9 ± 0.3 nM and 0.88 ± 0.2 nM, respectively.

As for `C[C@@H]1CN(CCCc2ccccc2)[C@@H](C)CN1c1cccc(O)c1` [Compound 5h, 3-((2R,5S)-2,5-Dimethyl-4-(3-phenylpropyl)piperazin-1-yl)phenol], the Kb in data set [1] amounted to 18 ± 4 nM; in data set [2], 179 ± 68 nM; in data set [3], 26 ± 7 nM.

In turn, `C[C@@H](N)CN1CCN(c2cccc(O)c2)[C@@H](C)C1` [Compound 31b, 3-{(2S)-4-[(2R)-2-amino-propyl]-2-methylpiperazin-1-yl}phenol] gave a melting point of 210 to 215 °C.

With `C[C@@H]1CN(c2cccc(O)c2)[C@@H](C)CN1CCCc1ccccc1` [Compound 5g, 3-((2S,5R)-2,5-Dimethyl-4-(3-phenylpropyl)piperazin-1-yl)phenol], the Kb was 6.1 ± 1.7 nM in data set [1], 55 ± 3 nM in data set [2] and 4.2 ± 0.8 nM in data set [3].

Regarding `Oc1cccc(N2CCN(CCCc3ccccc3)CC2)c1` [Compound 5a, 3-(4-Phenylpropylpiperazin-1-yl)phenol], the Kb in data set [1] turned out to be 8.5 ± 1.4 nM; in data set [2], 34 ± 6 nM; in data set [3], 15 ± 3 nM.

On to `C[C@H]1CN(C)CCN1c1cccc(O)c1` [Compound 5f, (S)-3-(2,4-Dimethylpiperazin-1-yl)phenol], for which the Kb in data set [1] was found to be 508 ± 26 nM; in data set [3] it was 193 ± 19 nM.
